Experimental data taken from PubChem BioAssay (NCI).
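Method: 48-hour compound exposure of cells in 96-well plates, five concentrations, linear interpolation of endpoints. At the TGI there is no net growth.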 Where a SMILES comes first, the peptide text is derived from it. The star is where a group is joined. Boc = CC(C)(C)OC(=O)*

Experiments:
Test in all cases: NCI anticancer screen, dose series, 48 h
PC-3 prostate = tested on: PC-3 prostate
SF-268 CNS = tested on: SF-268 CNS
TK-10 renal = tested on: TK-10 renal
OVCAR-4 ovarian = tested on: OVCAR-4 ovarian
LOX IMVI melanoma = tested on: LOX IMVI melanoma
MCF7 breast = tested on: MCF7 breast
MALME-3M melanoma = tested on: MALME-3M melanoma
NCI-H23 lung = tested on: NCI-H23 lung
786-0 renal = tested on: 786-0 renal
OVCAR-8 ovarian = tested on: OVCAR-8 ovarian
OVCAR-3 ovarian = tested on: OVCAR-3 ovarian
HCC-2998 colon = tested on: HCC-2998 colon
HL-60(TB) leukemia = tested on: HL-60(TB) leukemia
M14 melanoma = tested on: M14 melanoma
SNB-19 CNS = tested on: SNB-19 CNS
OVCAR-5 ovarian = tested on: OVCAR-5 ovarian
UO-31 renal = tested on: UO-31 renal
SK-MEL-28 melanoma = tested on: SK-MEL-28 melanoma
SK-MEL-5 melanoma = tested on: SK-MEL-5 melanoma
SW-620 colon = tested on: SW-620 colon
ACHN renal = tested on: ACHN renal
BT-549 breast = tested on: BT-549 breast
NCI-H522 lung = tested on: NCI-H522 lung
MDA-N = tested on: MDA-N
MDA-MB-231 breast = tested on: MDA-MB-231 breast
MOLT-4 leukemia = tested on: MOLT-4 leukemia
HOP-62 NSCLC = tested on: HOP-62 NSCLC
UACC-257 melanoma = tested on: UACC-257 melanoma
HCT-116 colon = tested on: HCT-116 colon
T-47D breast = tested on: T-47D breast
SN12C renal = tested on: SN12C renal
HT29 colon = tested on: HT29 colon
A549 NSCLC = tested on: A549 NSCLC
IGROV1 ovarian = tested on: IGROV1 ovarian
UACC-62 melanoma = tested on: UACC-62 melanoma
CCRF-CEM leukemia = tested on: CCRF-CEM leukemia
SR leukemia = tested on: SR leukemia
A498 renal = tested on: A498 renal
RPMI-8226 leukemia = tested on: RPMI-8226 leukemia
DU-145 prostate = tested on: DU-145 prostate
MDA-MB-435 = tested on: MDA-MB-435
NCI-H226 lung = tested on: NCI-H226 lung
SNB-75 CNS = tested on: SNB-75 CNS
U251 CNS = tested on: U251 CNS
NCI-H460 lung = tested on: NCI-H460 lung
SK-MEL-2 melanoma = tested on: SK-MEL-2 melanoma
K-562 leukemia = tested on: K-562 leukemia
HS 578T breast = tested on: HS 578T breast
HOP-92 NSCLC = tested on: HOP-92 NSCLC
SF-295 CNS = tested on: SF-295 CNS
HCT-15 colon = tested on: HCT-15 colon
KM12 colon = tested on: KM12 colon
COLO 205 colon = tested on: COLO 205 colon
RXF 393 renal = tested on: RXF 393 renal
EKVX NSCLC = tested on: EKVX NSCLC

## CC(C)(C)OC(=O)NC(Cc1ccc(O)cc1)C(=O)NC(CCCCN)C(=O)O (stereo not drawn) (Boc-Tyr-Lys-OH; configuration not given here)
PC-3 prostate
  TGI: > 100 µM
SF-268 CNS
  TGI: > 100 µM
TK-10 renal
  TGI: > 100 µM
OVCAR-4 ovarian
  TGI: 48.1 µM
LOX IMVI melanoma
  TGI: 28.2 µM
MCF7 breast
  TGI: > 100 µM
MALME-3M melanoma
  TGI: 76.6 µM
NCI-H23 lung
  TGI: 48.6 µM
786-0 renal
  TGI: > 100 µM
OVCAR-8 ovarian
  TGI: > 100 µM
OVCAR-3 ovarian
  TGI: 66.3 µM
HCC-2998 colon
  TGI: 65.3 µM
HL-60(TB) leukemia
  TGI: 52.8 µM
M14 melanoma
  TGI: 56 µM
SNB-19 CNS
  TGI: 53.2 µM
OVCAR-5 ovarian
  TGI: 84.9 µM
UO-31 renal
  TGI: 54 µM
SK-MEL-28 melanoma
  TGI: 56.1 µM
SK-MEL-5 melanoma
  TGI: > 100 µM
SW-620 colon
  TGI: > 100 µM
ACHN renal
  TGI: 65.1 µM
BT-549 breast
  TGI: 80.5 µM
NCI-H522 lung
  TGI: 26.5 µM
MDA-N
  TGI: > 100 µM
MDA-MB-231 breast
  TGI: 61.8 µM
MOLT-4 leukemia
  TGI: 94.7 µM
HOP-62 NSCLC
  TGI: 39 µM
UACC-257 melanoma
  TGI: 83.5 µM
HCT-116 colon
  TGI: 40.9 µM
T-47D breast
  TGI: 53.1 µM
SN12C renal
  TGI: 42.3 µM
HT29 colon
  TGI: > 100 µM
A549 NSCLC
  TGI: > 100 µM
IGROV1 ovarian
  TGI: 37.1 µM
UACC-62 melanoma
  TGI: 31.5 µM
CCRF-CEM leukemia
  TGI: 92.7 µM
SR leukemia
  TGI: 77.3 µM
A498 renal
  TGI: 92.4 µM
RPMI-8226 leukemia
  TGI: 84.5 µM
DU-145 prostate
  TGI: 80.3 µM
MDA-MB-435
  TGI: > 100 µM
NCI-H226 lung
  TGI: > 100 µM
SNB-75 CNS
  TGI: 77 µM
U251 CNS
  TGI: 43.5 µM
NCI-H460 lung
  TGI: 66.2 µM
SK-MEL-2 melanoma
  TGI: 35.1 µM
K-562 leukemia
  TGI: > 100 µM

## CN1CCN(C(=S)N(C(=O)c2cccs2)C2CCCCC2)CC1
SF-268 CNS
  TGI: > 100 µM
HS 578T breast
  TGI: > 100 µM
TK-10 renal
  TGI: > 100 µM
OVCAR-4 ovarian
  TGI: > 100 µM
LOX IMVI melanoma
  TGI: > 100 µM
MCF7 breast
  TGI: > 100 µM
HOP-92 NSCLC
  TGI: > 100 µM
MALME-3M melanoma
  TGI: > 100 µM
NCI-H23 lung
  TGI: > 100 µM
SF-295 CNS
  TGI: > 10 µM
786-0 renal
  TGI: > 100 µM
OVCAR-8 ovarian
  TGI: > 100 µM
OVCAR-3 ovarian
  TGI: > 100 µM
HCC-2998 colon
  TGI: > 100 µM
HL-60(TB) leukemia
  TGI: 54.2 µM
M14 melanoma
  TGI: > 100 µM
SNB-19 CNS
  TGI: > 100 µM
OVCAR-5 ovarian
  TGI: > 100 µM
UO-31 renal
  TGI: > 100 µM
SK-MEL-28 melanoma
  TGI: > 100 µM
SK-MEL-5 melanoma
  TGI: > 100 µM
SW-620 colon
  TGI: > 100 µM
HCT-15 colon
  TGI: > 100 µM
ACHN renal
  TGI: > 100 µM
BT-549 breast
  TGI: > 100 µM
NCI-H522 lung
  TGI: > 100 µM
MDA-N
  TGI: > 100 µM
MDA-MB-231 breast
  TGI: > 100 µM
MOLT-4 leukemia
  TGI: > 10 µM
UACC-257 melanoma
  TGI: > 100 µM
T-47D breast
  TGI: > 100 µM
SN12C renal
  TGI: > 100 µM
HT29 colon
  TGI: > 100 µM
A549 NSCLC
  TGI: > 100 µM
IGROV1 ovarian
  TGI: > 100 µM
KM12 colon
  TGI: > 100 µM
UACC-62 melanoma
  TGI: > 100 µM
CCRF-CEM leukemia
  TGI: > 10 µM
SR leukemia
  TGI: > 100 µM
COLO 205 colon
  TGI: > 100 µM
RXF 393 renal
  TGI: > 100 µM
RPMI-8226 leukemia
  TGI: > 100 µM
DU-145 prostate
  TGI: > 100 µM
MDA-MB-435
  TGI: > 100 µM
NCI-H226 lung
  TGI: > 100 µM
SNB-75 CNS
  TGI: > 100 µM
U251 CNS
  TGI: > 100 µM
NCI-H460 lung
  TGI: > 100 µM
SK-MEL-2 melanoma
  TGI: > 100 µM
K-562 leukemia
  TGI: > 100 µM

## CCOC(=O)C1(C)CCc2sc(N)c(C#N)c21 (stereo not drawn)
PC-3 prostate
  TGI: > 100 µM
HS 578T breast
  TGI: > 100 µM
TK-10 renal
  TGI: > 100 µM
MCF7 breast
  TGI: > 100 µM
HOP-92 NSCLC
  TGI: > 100 µM
MALME-3M melanoma
  TGI: > 100 µM
EKVX NSCLC
  TGI: > 100 µM
NCI-H23 lung
  TGI: > 100 µM
786-0 renal
  TGI: > 100 µM
OVCAR-8 ovarian
  TGI: > 100 µM
HCC-2998 colon
  TGI: > 100 µM
HL-60(TB) leukemia
  TGI: > 100 µM
M14 melanoma
  TGI: > 100 µM
SNB-19 CNS
  TGI: > 100 µM
OVCAR-5 ovarian
  TGI: > 100 µM
UO-31 renal
  TGI: > 100 µM
SK-MEL-28 melanoma
  TGI: > 100 µM
SK-MEL-5 melanoma
  TGI: > 100 µM
SW-620 colon
  TGI: > 100 µM
HCT-15 colon
  TGI: > 100 µM
ACHN renal
  TGI: > 100 µM
BT-549 breast
  TGI: > 100 µM
MDA-N
  TGI: > 100 µM
MDA-MB-231 breast
  TGI: > 100 µM
MOLT-4 leukemia
  TGI: > 100 µM
HOP-62 NSCLC
  TGI: > 100 µM
UACC-257 melanoma
  TGI: > 100 µM
HCT-116 colon
  TGI: > 100 µM
T-47D breast
  TGI: > 100 µM
SN12C renal
  TGI: > 100 µM
HT29 colon
  TGI: > 100 µM
A549 NSCLC
  TGI: > 100 µM
IGROV1 ovarian
  TGI: > 100 µM
KM12 colon
  TGI: > 100 µM
UACC-62 melanoma
  TGI: > 100 µM
CCRF-CEM leukemia
  TGI: > 100 µM
COLO 205 colon
  TGI: > 100 µM
A498 renal
  TGI: > 100 µM
RXF 393 renal
  TGI: > 100 µM
RPMI-8226 leukemia
  TGI: > 100 µM
NCI-H226 lung
  TGI: > 100 µM
SNB-75 CNS
  TGI: > 100 µM
U251 CNS
  TGI: > 100 µM
NCI-H460 lung
  TGI: > 100 µM
SK-MEL-2 melanoma
  TGI: > 100 µM
K-562 leukemia
  TGI: > 100 µM
